The source of these data is patent US20090042865A1, “DNA-PK INHIBITORS” (priority 2007, published 2009).

In one test the target is DNA-PK (Homo sapiens, UniProt P78527). Nature of the test: DNA-PK inhibition assay (ELISA, phosphorylation of GST-p53N66). The format is biochemical, Mammalian (isolated from HeLa cell nuclear extract). As for the experimental part:
In order to assess the inhibitory action of the compounds against DNA-PK in vitro, the following assay was used to determine IC50 values.
To the assay mix, varying concentrations of inhibitor (in DMSO at a final concentration of 1%) were added. After 10 minutes of incubation, ATP was added to give a final concentration of 50 μM along with a 30mer double stranded DNA oligonucleotide (final concentration of 0.5 ng/ml) to initiate the reaction. After 1 hour with shaking, 150 μl of phosphate buffered saline (PBS) was added to the reaction and 5 μl then transferred to a 96 well opaque white plate containing 45 μl of PBS per well where the GSTp53N66 substrate was allowed to bind to the wells for 1 hour. To detect the phosphorylation event on the serine 15 residue of p53 elicited by DNA-PK a p53 phosphoserine-15 antibody (Cell Signaling Technology) was used in a basic ELISA procedure. An anti-rabbit HRP conjugated secondary antibody (Pierce) was then employed in the ELISA before the addition of chemiluminescence reagent (NEN Renaissance) to detect the signal as measured by chemiluminescent counting via a TopCount NXT (Packard).
The enzyme activity for each compound is then calculated using the following equation: […]
These are determined over a range of different concentrations, normally from 10 μM down to 0.001 μM. Such IC50 values are used as comparative values to identify increased compound potencies.
For orientation: An ELISA detects its analyte on a solid surface through an enzyme-linked reagent.

Another test deals with cells. Conditions: cited from earlier work.
A further test addresses PI 3-kinase. Conditions: stated to be the same as towards DNA-PK; cited from earlier work.
Another test deals with HeLa cells. Put plainly: Survival Enhancement Ratio, clonogenic survival assay after 2 Gray irradiation. The format is cell-based. Conditions: prior-art compound of WO 03/024949; concentration not given. As for the experimental part:
The Survival Enhancement Ratio (SER) is a ratio of the enhancement of cell kill elicited by the DNA-PK inhibitor after 2 Grays of irradiation compared to […]. DNA-PK inhibitors were used at a concentration of 25, 50, 100 and/or 500 nM. Radiation was delivered by a Faxitron 43855D machine at a dose rate of 1 Gy pre minute The SER at 2 Gray irradiation was calculated from the formula:
The degree of cell killing was monitored by a standard clonogenic survival assay. Briefly, tissue culture treated 6-well plates were seeded with HeLa cells at an appropriate concentration to give 100-200 colonies per well and returned to the incubator in order to allow the cells to attach. Four hours later, compound or vehicle control was added to the cells. The cells were then incubated for 1 hour in the presence of inhibitor prior to irradiation at 2 Gray using a Faxitron 43855D cabinet X-ray machine. The cells were then incubated for a further 16 hours before the media was replaced with fresh media in the absence of DNA-PK inhibitor. After 8 days, colonies formed were fixed and stained with Giemsa (Sigma, Poole, UK) and scored using an automated colony counter (Oxford Optronics Ltd, Oxford, UK). The data was calculated as described above.

Where [1] appears, read: mean, DNA-PK from HeLa nuclear extract, 50 μM ATP, read-out: IC50 (mean IC50 of the compounds).
[2] abbreviates: IC50 (mean IC50 of the compounds), mean, DNA-PK from HeLa nuclear extract, 50 μM ATP.

Where two headings read alike, the source gives them in different places.

The IC50 is the midpoint of a concentration-inhibition curve. On to `O=c1cc(N2CCOCC2)oc2c(-c3ccc(N4CCN(C5CCCCC5O)CC4)c4c3sc3ccccc34)cccc12` (stereo not shown) [Compound 2k], for which the IC50 on DNA-PK (setting [1]) amounted to 43 nM.

For the compound `O=c1cc(N2CCOCC2)oc2c(-c3ccc(N4CCCC(F)C4)c4c3sc3ccccc34)cccc12` (stereo not shown) [Compound 1m], it took 136 nM to reach half-maximal inhibition on DNA-PK (setting [2]) (IC50).

Turning to `CC(C)NC(=O)CN1CCN(c2ccc(-c3cccc4c(=O)cc(N5CCOCC5)oc34)c3sc4ccccc4c23)CC1` [Compound 2o], the IC50 on DNA-PK (mean IC50, read-out: IC50) is less than 50 nM; on DNA-PK (setting [1]) it was 7 nM.

With `CCCOCCN1CCN(c2ccc(-c3cccc4c(=O)cc(N5CCOCC5)oc34)c3sc4ccccc4c23)CC1` [Compound 2j], the IC50 on DNA-PK (setting [1]) turned out to be 9 nM.

As to `O=c1cc(N2CCOCC2)oc2c(-c3ccccc3)cccc12` [LY294002], the “sensitisation of cells to the effects of IR” value in the test on cells was “weakly sensitise”. Also, at PI 3-kinase, the IC50 was approximately 1000 nM.

In the case of `O=c1cc(N2CCOCC2)oc2c(-c3ccc(N4CCN(CCOCCO)CC4)c4c3sc3ccccc34)cccc12` [Compound 1d], the IC50 on DNA-PK (setting [2]) is 8 nM; against DNA-PK (IC50, mean IC50), less than 50 nM.

Consider `CC1CN(c2ccc(-c3cccc4c(=O)cc(N5CCOCC5)oc34)c3sc4ccccc4c23)CC(C)N1` (stereo not shown) [Compound 1g], for which the IC50 at DNA-PK (setting [2]) is 12 nM; at DNA-PK (IC50, mean IC50), less than 50 nM.

For the compound `CCN1CCN(c2ccc(-c3cccc4c(=O)cc(N5CCOCC5)oc34)c3sc4ccccc4c23)CC1` [Compound 1b], the IC50 at DNA-PK (setting [2]) is 8 nM; against DNA-PK (IC50, mean IC50), less than 50 nM.

Take `O=c1cc(N2CCOCC2)oc2c(-c3ccc(N4CCN(CC5CCCO5)CC4)c4c3sc3ccccc34)cccc12` (stereo not shown) [Compound 2i]: the IC50 on DNA-PK (setting [1]) was determined as 21 nM.

Consider `CS(=O)(=O)N1CCN(c2ccc(-c3cccc4c(=O)cc(N5CCOCC5)oc34)c3sc4ccccc4c23)CC1` [Compound 3a], for which the IC50 at DNA-PK (mean IC50, read-out: IC50) was less than 50 nM; on DNA-PK (setting [1]), 24 nM.

`COCCOCCN1CCN(c2ccc(-c3cccc4c(=O)cc(N5CCOCC5)oc34)c3sc4ccccc4c23)CC1` [Compound 2b]: the half-maximal inhibitory concentration (IC50) is less than 50 nM on DNA-PK (mean IC50, read-out: IC50) and 4 nM on DNA-PK (setting [1]).

`COC1CCN(c2ccc(-c3cccc4c(=O)cc(N5CCOCC5)oc34)c3sc4ccccc4c23)CC1` [Compound 1p]: on DNA-PK (setting [2]), half-maximal inhibition (IC50) was put at 173 nM.

As for `O=c1cc(N2CCOCC2)oc2c(-c3ccc(N4CCN(CC5CC5)CC4)c4c3sc3ccccc34)cccc12` [Compound 2g], the IC50 at DNA-PK (mean IC50, read-out: IC50) was less than 50 nM; on DNA-PK (setting [1]) it was 17 nM.

In the case of `CCS(=O)(=O)N1CCN(c2ccc(-c3cccc4c(=O)cc(N5CCOCC5)oc34)c3sc4ccccc4c23)CC1` [Compound 3b], the IC50 was less than 50 nM on DNA-PK (mean IC50, read-out: IC50) and 21 nM on DNA-PK (setting [1]).

For `CCOCCN1CCN(c2ccc(-c3cccc4c(=O)cc(N5CCOCC5)oc34)c3sc4ccccc4c23)CC1` [Compound 2e], the IC50 is less than 50 nM on DNA-PK (mean IC50, read-out: IC50) and 7 nM on DNA-PK (setting [1]).

With `O=c1cc(N2CCOCC2)oc2c(-c3ccc(N4CCN(CCO)CC4)c4c3sc3ccccc34)cccc12` [Compound 2m], the half-maximal inhibitory concentration (IC50) at DNA-PK (mean IC50, read-out: IC50) was less than 50 nM; on DNA-PK (setting [1]), 3 nM.

For the compound `O=c1cc(N2CCOCC2)oc2c(-c3ccc(N4CCNCC4)c4c3sc3ccccc34)cccc12` [Compound 1a, 2-Morpholin-4-yl-8-(1-piperazin-1-yl-dibenzothiophen-4-yl)-chromen-4-one], the half-maximal inhibitory concentration (IC50) on DNA-PK (setting [2]) was 11 nM; against DNA-PK (IC50, mean IC50) it was less than 50 nM.

At DNA-PK (setting [2]), `CC(C)(C)OC(=O)N1CCN(c2ccc(-c3cccc4c(=O)cc(N5CCOCC5)oc34)c3sc4ccccc4c23)CC1` [Compound 1c, 4-[4-(2-Morpholin-4-yl-4-oxo-4H-chromen-8-yl)-dibenzothiophen-1-yl]-piperazine-1-carboxylic acid tert-butyl ester] returned an IC50 of 447 nM.

With `CC(=O)C(C)N1CCN(c2ccc(-c3cccc4c(=O)cc(N5CCOCC5)oc34)c3sc4ccccc4c23)CC1` (stereo not shown) [Compound 2a], the IC50 at DNA-PK (mean IC50, read-out: IC50) was less than 50 nM; at DNA-PK (setting [1]), 11 nM.

Regarding `CCCN1CCN(c2ccc(-c3cccc4c(=O)cc(N5CCOCC5)oc34)c3sc4ccccc4c23)CC1` [Compound 2f], the IC50 at DNA-PK (mean IC50, read-out: IC50) was less than 50 nM; on DNA-PK (setting [1]), 11 nM.

On DNA-PK (setting [2]), `CC(C)(C)OC(=O)N1CCCN(c2ccc(-c3cccc4c(=O)cc(N5CCOCC5)oc34)c3sc4ccccc4c23)CC1` [Compound 1h] showed an IC50 of 86 nM.

On DNA-PK (IC50, prior-art compound of WO 03/024949, methods as below in the patent), `O=c1cc(N2CCOCC2)oc2c(-c3cccc4c3sc3ccccc34)cccc12` [reference compound] yielded an IC50 of 10 to 12 nM. The SER in the test with HeLa cells is recorded as 1.3.

As for `CN(C)C1CCN(c2ccc(-c3cccc4c(=O)cc(N5CCOCC5)oc34)c3sc4ccccc4c23)CC1` [Compound 1n], the IC50 against DNA-PK (setting [2]) is 13 nM; against DNA-PK (IC50, mean IC50) it was less than 50 nM.

The compound `CC(=O)N1CCN(c2ccc(-c3cccc4c(=O)cc(N5CCOCC5)oc34)c3sc4ccccc4c23)CC1` [Compound 1j] gave an IC50 at DNA-PK (setting [2]) of 31 nM.

The compound `CCOC1CCN(c2ccc(-c3cccc4c(=O)cc(N5CCOCC5)oc34)c3sc4ccccc4c23)CC1` [Compound 1o] gave an IC50 against DNA-PK (setting [2]) of 400 nM.

In the case of `COCCN1CCN(c2ccc(-c3cccc4c(=O)cc(N5CCOCC5)oc34)c3sc4ccccc4c23)CC1` [Compound 2c], the IC50 on DNA-PK (mean IC50, read-out: IC50) is less than 50 nM; on DNA-PK (setting [1]), 6 nM.

Consider `CC(C)N1CCN(c2ccc(-c3cccc4c(=O)cc(N5CCOCC5)oc34)c3sc4ccccc4c23)CC1` [Compound 1e], for which the IC50 against DNA-PK (setting [2]) was 17 nM; on DNA-PK (IC50, mean IC50), less than 50 nM.

`O=C(C1CCCO1)N1CCN(c2ccc(-c3cccc4c(=O)cc(N5CCOCC5)oc34)c3sc4ccccc4c23)CC1` (stereo not shown) [Compound 1k] gave a 50% inhibitory concentration (IC50) at DNA-PK (setting [2]) of 80 nM.

On to `O=c1cc(N2CCOCC2)oc2c(-c3ccc(N4CCC(N5CCOCC5)CC4)c4c3sc3ccccc34)cccc12` [Compound 1f], for which the half-inhibitory concentration (IC50) on DNA-PK (setting [2]) was 24 nM; on DNA-PK (IC50, mean IC50), less than 50 nM.

Take `NCCN1CCN(c2ccc(-c3cccc4c(=O)cc(N5CCOCC5)oc34)c3sc4ccccc4c23)CC1` [Compound 2l]: on DNA-PK (setting [1]), the half-maximal inhibitory concentration (IC50) stood at 7 nM.
